The numbers were not newly measured in patent US20210315249A1, “Cannabis-Infused Product with Controlled Cannabinoid Profile User Experience” (HEXO […]., priority 2018, published 2021), which cites them from elsewhere.

Where two headings read alike, the source gives them in different places.

The conditions of data set [1]: dogs; emulsion droplet size 119 nm or 52 nm.
The conditions of data set [2]: rats; solution in MCT oil or emulsion with droplet size 160 nm or 710 nm.

`CCCCN(CCCC)CCC(O)c1cc2c(Cl)cc(Cl)cc2c2cc(C(F)(F)F)ccc12` (centres unmarked) [halofantrine]: the bioavailability entry in data set [1] was “comparable bioavailability”.

`COc1nc(C(Cl)(Cl)Cl)c(Cl)c(OC)c1Cl` [penclomedine]: the bioavailability result in data set [2] is reported as “comparable bioavailability”.
